From patent US4740233A, “Substituted 1,2,4-triazolo[1,5-a]-pyrimidine-2-sulfonamides and compositions and methods of controlling undesired vegetation and suppressing the nitrification of ammonium nitrogen in soil” (The Dow Chemical Company, priority 1986, dated 1988)

Test system: nitrification of ammonium nitrogen
Experiment: Suppression of nitrification of ammonium nitrogen in soil
Settings: 27° C.
Protocol: A sufficient volume of water was added to 20 g of the soil in a wide-mouth, screw-cap, 4-ounce, glass bottle, such that the moisture content of the mixture was made equal to the 1/3 bar tension value for that soil. The mixture was thoroughly mixed before sealing. […] Acetone slows the rate of soil nitrification and its concentration must be carefully controlled. Single samples of each test chemical were incubated for two weeks at 27° C.
The experiment comprised the following types of samples:
The soil samples were analyzed as follows: Sufficient ammonium sulfate extracting solution was added to the sample, such that the total volume of added water was 50 ml (included water added during sample preparation). The capped mixture was shaken 10 minutes to solubilize nitrate and the soil particulates were allowed to settle. The nitrate concentration in the water phase was determined with a nitrate-specific ion electrode such as Orion Model 93-07.
The non-nitrate nitrogen remaining (% NH4 -N remaining) in the soil after two weeks (performance value) was calculated as follows: [formula]

| SMILES | % NH4-N Remaining After 2 Weeks Incubation (0.01 ppm) [%] | % NH4-N Remaining After 2 Weeks Incubation (0.1 ppm) [%] | % NH4-N Remaining After 2 Weeks Incubation (1 ppm) [%] | % NH4-N Remaining After 2 Weeks Incubation (10 ppm) [%] | % NH4-N Remaining After 2 Weeks Incubation (0.06 ppm) [%] | % NH4-N Remaining After 2 Weeks Incubation (0.25 ppm) [%] | % NH4-N Remaining After 2 Weeks Incubation (4 ppm) [%] | % NH4-N Remaining After 2 Weeks Incubation (0.6 ppm) [%] | % NH4-N Remaining After 2 Weeks Incubation (1.25 ppm) [%] | % NH4-N Remaining After 2 Weeks Incubation (2.5 ppm) [%] | % NH4-N Remaining After 2 Weeks Incubation (5 ppm) [%] |
| --- | --- | --- | --- | --- | --- | --- | --- | --- | --- | --- | --- |
| Cc1cc(C)n2nc(S(=O)(=O)Nc3ccccc3C(=O)N(C)C)nc2n1 [Compound 42] | 0 | 0 | 8 | 68 |  |  |  |  |  |  |  |
| Cc1cc(C)n2nc(S(=O)(=O)Nc3ccc(Cl)cc3C(=O)N(C)C)nc2n1 [Compound 43] | 0 | 0 | 44 | 91 |  |  |  |  |  |  |  |
| Cc1cc(C)n2nc(S(=O)(=O)Nc3c(Cl)ccc(C)c3Cl)nc2n1 [Compound 46] | 50 | 71 | 88 | 94 |  |  |  |  |  |  |  |
| Cc1cc(Cl)c(NS(=O)(=O)c2nc3nc(C)cc(C)n3n2)c(Cl)c1 [Compound 47] | 0 | 40 | 73 | 92 |  |  |  |  |  |  |  |
| Cc1cc(C)n2nc(S(=O)(=O)Nc3ccccc3SC(F)(F)F)nc2n1 [Compound 55] |  |  | 65 |  | 19 | 91 | 84 |  |  |  |  |
| Cc1cc(C)n2nc(S(=O)(=O)Nc3ccccc3S(=O)(=O)C(F)(F)F)nc2n1 [Compound 57] |  |  | 45 |  | 2 | 17 | 69 |  |  |  |  |
| Cc1cc(C)n2nc(S(=O)(=O)Nc3c(C)cccc3Br)nc2n1 [Compound 58] |  |  | 58 |  | 92 | 48 | 80 |  |  |  |  |
| Cc1cc(C)n2nc(S(=O)(=O)Nc3ccccc3SC(F)(F)C(F)F)nc2n1 [Compound 59] |  |  | 51 |  | 11 | 33 | 66 |  |  |  |  |
| Cc1cc(C)n2nc(S(=O)(=O)Nc3ccccc3[S+]([O-])C(F)(F)C(F)F)nc2n1 (centres unmarked) [Compound 60] |  |  |  | 58 |  |  |  | 0 | 0 | 8 | 41 |
| Cc1cc(C)n2nc(S(=O)(=O)Nc3c(C)cccc3C(N)=O)nc2n1 [Compound 61] |  |  |  | 100 |  |  |  | 20 | 34 | 65 | 89 |
| Cc1cc(C)n2nc(S(=O)(=O)Nc3c(C)cccc3C(=O)N(C)C)nc2n1 [Compound 62] |  |  |  | 75 |  |  |  | 0 | 13 |  | 55 |
| Cc1cc(C)n2nc(S(=O)(=O)Nc3c(C)cccc3C(=O)OC(C)C)nc2n1 [Compound 64] |  |  | 62 |  | 19 | 43 | 81 |  |  |  |  |
| CCCSc1ccccc1NS(=O)(=O)c1nc2nc(C)cc(C)n2n1 [Compound 67] |  |  | 41 |  | 0 | 0 | 69 |  |  |  |  |
| Cc1cc(C)n2nc(S(=O)(=O)Nc3cccc(Cl)c3C)nc2n1 [Compound 68] |  |  | 16 |  | 0 | 20 | 57 |  |  |  |  |
| CSc1cccc(C)c1NS(=O)(=O)c1nc2nc(C)cc(C)n2n1 [Compound 70] |  |  | 69 |  | 0 | 29 | 87 |  |  |  |  |
| Cc1cc(C)n2nc(S(=O)(=O)Nc3c(C)cccc3C(=O)OCCN(C)C)nc2n1 [Compound 73] |  |  | 41 |  | 26 | 47 | 62 |  |  |  |  |
| Cc1cc(C)n2nc(S(=O)(=O)Nc3c(C)cccc3C(=O)Oc3ccccc3)nc2n1 [Compound 75] |  |  | 67 |  | 25 | 61 | 86 |  |  |  |  |
| Cc1cc(C)n2nc(S(=O)(=O)Nc3ccccc3SC(C)(C)C)nc2n1 [Compound 80] |  |  | 20 |  | 0 | 0 | 43 |  |  |  |  |
| Cc1cc(C)n2nc(S(=O)(=O)Nc3c(Cl)cccc3COCc3ccccc3)nc2n1 [Compound 92] |  |  | 0 |  | 0 | 4 | 25 |  |  |  |  |
| Cc1cc(C)n2nc(S(=O)(=O)Nc3ccccc3S(=O)(=O)c3ccccc3)nc2n1 [Compound 96] |  |  |  | 100 |  |  |  | 0 | 0 | 7 | 42 |
| Cc1cc(C)n2nc(S(=O)(=O)Nc3ccccc3Oc3ccc(C(F)(F)F)cc3Cl)nc2n1 [Compound 97] |  |  | 3 |  | 67 | 0 | 19 |  |  |  |  |
| Cc1cc(C)n2nc(S(=O)(=O)Nc3ccccc3Oc3ncc(C(F)(F)F)cc3Cl)nc2n1 [Compound 99] |  |  | 0 |  | 0 |  | 57 |  |  |  |  |
| COC(=O)c1ccc(C(=O)OC)c(NS(=O)(=O)c2nc3nc(C)cc(C)n3n2)c1 [Compound 102] |  |  |  | 44 |  |  |  | 0 | 0 | 0 | 24 |
| Cc1cc(C)n2nc(S(=O)(=O)Nc3c(C)cccc3C(=O)O)nc2n1 [Compound 103] |  |  | 43 |  | 0 | 15 | 53 |  |  |  |  |
| COC(=O)c1ccccc1NS(=O)(=O)c1nc2nc(C)c3c(n2n1)CCC3 [Compound 109] | 0 | 0 | 41 | 92 |  |  |  |  |  |  |  |
| Cc1nc2nc(S(=O)(=O)Nc3ccccc3C(=O)OC(C)C)nn2c2c1CCC2 [Compound 110] | 0 | 0 | 13 | 59 |  |  |  |  |  |  |  |
| CSc1ccccc1NS(=O)(=O)c1nc2ncc(Cl)cn2n1 [Compound 115] |  |  | 64 |  | 37 | 41 | 86 |  |  |  |  |
| O=S(=O)(Nc1c(F)cccc1Cl)c1nc2ncc(Cl)cn2n1 [Compound 116] |  |  | 57 |  | 27 | 50 | 81 |  |  |  |  |
| O=S(=O)(Nc1ccccc1)c1nc2ncc(Cl)cn2n1 [Compound 120] |  |  | 63 |  | 71 | 46 | 87 |  |  |  |  |
